Source: patent US20170121322A1, “BET-PROTEIN INHIBITING 3,4-DIHYDROPYRIDO[2,3-B]PYRAZINONES WITH META-SUBSTITUTED AROMATIC AMINO- OR ETHER GROUPS” (Bayer Pharma Aktiengesellschaft, priority 2014, published 2017)

Columns and labels:
MOLP-8 cells = assay: Cell proliferation assay MOLP-8 (alamarBlue); assay type: cell-based; conditions: Homo sapiens, multiple myeloma cells, 120 hours
Experimental: (§1) In accordance with the invention, the ability of the substances to inhibit cell proliferation was determined. Cell viability was determined by means of the alamarBlue® reagent (Invitrogen) in a Victor X3 Multilabel Reader (Perkin Elmer). The excitation wavelength was 530 nm and the emission wavelength […].
The MOLP-8 cells (DSMZ, ACC 569) were seeded at a concentration of 4000 cells/well in 100 μl of growth medium (RPMI1640, 20% FCS) on 96-well microtitre plates.
(§2) After overnight incubation at 37° C., the fluorescence values (CI values) were determined. Then the plates were treated with various substance dilutions (1E-5 M, 3E-6 M, 1E-6 M, 3E-7 M, 1E-7 M, 3E-8 M, 1E-8 M) and incubated at 37° C. over 96 hours (MOLM-13, B16F10, CHL-1 cells) or 120 hours (MOLP-8 cells). Subsequently, the fluorescence values were determined (CO values). For the data analysis, the CI values were subtracted from the CO values and the results were compared between cells which had been treated with various dilutions of the substance or only with buffer solution. The IC50 values (substance concentration needed for 50% inhibition of cell proliferation) were calculated therefrom.
(§3) The substances were tested in the cell lines in Table 2, which represent the indications specified by way of example: […]

MOLM-13 cells = assay: Cell proliferation assay MOLM-13, method 1 (alamarBlue); assay type: cell-based; conditions: Homo sapiens, acute myeloid leukaemia cells, 4000 cells/well, 96-well, 96 hours
Experimental: as §1
The MOLM-13 cells (DSMZ, ACC 554) were seeded at a concentration of 4000 cells/well in 100 μl of growth medium (RPMI1640, 10% FCS) on 96-well microtitre plates (method 1).
as §2, §3

[1] = target: T1, BRD4 bromo domain 1 [BRD4(1)] (Homo sapiens, UniProt O60885); assay: BRD4(1)/acetylated peptide H4 TR-FRET binding assay; conditions: His6-BRD4(1) (aa 67-152) vs acetylated histone H4 peptide
T1 construct: N-terminally His6-tagged BRD4(1) (amino acids 67-152); made in house; host or cells: E. coli
In short: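 His6-tagged BRD4(1) (aa 67-152, E. coli-expressed; 10 nM) pre-incubated with compound (0.1 nM–20 μM, duplicates) for 10 min at 22 °C in HEPES pH 7.5 buffer, then biotinylated tetra-acetylated H4 peptide with TR-FRET reagents added. After 1 h at 22 °C and ≥3 h at 4 °C, the 665/620 nm ratio was read; IC50 from a 4-parameter fit.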

CHL-1 cells = assay: Cell proliferation assay CHL-1 (alamarBlue); assay type: cell-based; conditions: Homo sapiens, melanoma (BRAF wild-type) cells, 96 hours
Experimental: as §1
The CHL-1 cells (ATCC, CRL-9446) were seeded at a concentration of 1000 cells/well in 100 μl of growth medium (DMEM with glutamine, 10% FCS) on 96-well microtitre plates.
as §2, §3

B16F10 cells = assay: Cell proliferation assay B16F10 (alamarBlue); assay type: cell-based; conditions: Mus musculus, B16-F10, melanoma (BRAF wild-type) cells, 96 hours
Experimental: as §1
The B16F10 cells (ATCC, CRL-6475) were seeded at a concentration of 300-500 cells/well in 100 μl of growth medium (DMEM with phenol red, 10% FCS) on 96-well microtitre plates.
as §2, §3

SMILES | IC50 (MOLM-13 cells) [nM] | IC50 [1] [nM] | IC50 (B16F10 cells) [nM] | IC50 (MOLP-8 cells) [nM] | IC50 (CHL-1 cells) [nM]
COc1ccc(S(=O)(=O)C2CC2)cc1Nc1ccc2c(n1)N(C(C)C)[C@H](C)C(=O)N2C [Example 15, (3R)-6-{[5-(Cyclopropylsulphonyl)-2-methoxyphenyl]amino}-4-isopropyl-1,3-dimethyl-3,4-dihydropyrido[2,3-b]pyrazin-2(1H)-one] | 149 | 73 | 132 | 118 | 52
COc1ccc(S(=O)(=O)C(C)C)cc1Nc1ccc2c(n1)N(C(C)C)[C@H](C)C(=O)N2C [Example 16, (3R)-4-Isopropyl-6-{[5-(isopropylsulphonyl)-2-methoxyphenyl]amino}-1,3-dimethyl-3,4-dihydropyrido[2,3-b]pyrazin-2(1H)-one] | 184 | 88 | 180 | 135 | 76
CC1C(=O)N(C)c2ccc(Nc3cccc(S(C)(=O)=O)c3)nc2N1c1ccccc1 (stereo not drawn) [Example 17, 1,3-Dimethyl-6-{[3-(methylsulphonyl)phenyl]amino}-4-phenyl-3,4-dihydropyrido[2,3-b]pyrazin-2(1H)-one] | 1410 | 303 | 1100 | 1060 | 800
C[C@@H]1C(=O)N(C)c2ccc(Nc3cccc(C(F)(F)F)c3)nc2N1C1CCOCC1 [Example 43, (3R)-1,3-Dimethyl-4-(tetrahydro-2H-pyran-4-yl)-6-{[3-(trifluoromethyl)phenyl]amino}-3,4-dihydropyrido[2,3-b]pyrazin-2(1H)-one] | 1220 | 321 | 1080 | 911 | 707

Further compounds by falling IC50 (MOLM-13 cells), results first:

IC50 (MOLM-13 cells) [nM] | IC50 [1] [nM] | IC50 (B16F10 cells) [nM] | SMILES | IC50 (MOLP-8 cells) [nM] | IC50 (CHL-1 cells) [nM]
686 | 228 | 1080 | Cc1cc(Nc2ccc3c(n2)N(C2CCOCC2)[C@H](C)C(=O)N3C)ccn1 [Example 42, (3R)-1,3-Dimethyl-6-[(2-methylpyridin-4-yl)amino]-4-(tetrahydro-2H-pyran-4-yl)-3,4-dihydropyrido[2,3-b]pyrazin-2(1H)-one] | 436 | 445
205 | 173 | 248 | COc1ccc(S(C)(=O)=O)cc1Nc1ccc2c(n1)N(C(C)C)[C@H](C)C(=O)N2C [Example 14, (3R)-4-Isopropyl-6-{[2-methoxy-5-(methylsulphonyl)phenyl]amino}-1,3-dimethyl-3,4-dihydropyrido[2,3-b]pyrazin-2(1H)-one] | 174 | 118
